Experimental data: PubChem BioAssay AID2305 (GlaxoSmithKline (GSK), 2010)
Where “and” joins values, the source holds several entries; their conditions need not be identical. Equal values may be shown once.

Tested on: P. falciparum 3D7 growth, pLDH absorbance
Test: blood-stage malaria parasite growth potency – strain 3D7, dose response (AID 2305)

Structure (SMILES)	IC50
Cc1ccc(C)c(C2CCN(CCCCNC(=O)c3ccc(NC(=O)c4ccc(Cl)cc4)cc3)CC2)c1	850 nM
Cc1cccc2[nH]c(-c3ccc(-c4ccc(CNCc5ccccc5)cc4)cc3)nc12	510 nM
CC(C)Cn1c(N)cc(=O)n(C)c1=O	980 nM
Cc1ccc(-c2ccc3c(c2)C=C(C(=O)NC2CCN(CCNC(=O)c4cccc(C(F)(F)F)c4)CC2)CCC3)cc1	510 nM
Nc1ncc(-c2cccc(F)c2)cc1-c1nc2ccc(F)cc2[nH]1	180 nM
O=C(/C=C/c1ccc(C(F)(F)F)cc1)NC1CCC(CN2CCC(c3c[nH]c4ccccc34)CC2)CC1 (centres undefined)	960 nM and 370 nM
CC(Cc1ccc(CSC(C)C)cc1)NCC(O)c1cccc(Cl)c1 (centres undefined)	600 nM
COc1ccc(C2CC(=O)C3=C(C2)NC(C)=C(C(=O)OC(C)C)C3c2cccc(O)c2)cc1OC (centres undefined)	780 nM
COc1ccccc1CCN(C)CCN1CCC(NC(=O)c2ccc(-c3ccc(C(F)(F)F)cc3)cc2)CC1	1030 nM
CC(Cc1ccc(OCc2ccccc2)c(Cl)c1)NCC(O)c1cccc(C(F)(F)F)c1 (centres undefined)	940 nM
CC(C)C[C@@H](C(=O)Nc1ccc(Cc2ccc(NC(=O)[C@H](CC(C)C)N(C)C(=O)OC(C)(C)C)cc2)cc1)N(C)C(=O)OC(C)(C)C	820 nM
CCOC(=O)C1=C(C)NC2=C(C(=O)CC(C)(C)C2)C1c1ccc(Br)cc1 (centres undefined)	1160 nM
O=C(Nc1ccc(-c2nc3ccccc3[nH]2)cc1)c1cccc([N+](=O)[O-])c1	220 nM
Cc1cc2cc(CNCCc3ccccc3Br)ccc2nc1N	240 nM
O=C(N[C@@H](Cc1ccccc1)[C@H](O)CNC1CCc2ccccc2C1)c1cc(C2CCCC2)cc(N2CCCC2=O)c1 (some centres undefined)	160 nM
Cc1nc2nc(N)nc(N)c2c(C)c1Cc1ccc(C(N)=O)cc1	530 nM
O=C(NC(Cc1ccccc1)C(=O)O)c1cc(=O)c2ccccc2o1 (centres undefined)	190 nM
N#Cc1ccc2c(c1)CCN(CCC1CCC(NC(=O)/C=C/c3cccc4cc[nH]c34)CC1)CC2 (centres undefined)	1090 nM
O=C(Nc1cccc(CN2CCCN(Cc3ccc4c(c3)OCO4)CC2)c1)c1cc2ccccc2s1	990 nM
COc1ccc(CN2CCC(CNCc3cccc(-c4ccccc4)c3)CC2)cc1	240 nM
N#Cc1ccc(N2CCN(C(=O)c3cccc(-c4noc(C(F)(F)F)n4)c3)CC2)nc1	220 nM
COc1cc(NC(=O)Nc2ccc([N+](=O)[O-])cc2OC)c(OC)cc1Cl	1470 nM
CCCCN(CCCC)C(=Nc1cccc(Cl)c1Cl)Nc1ccc(C#N)cc1O	850 nM
O=C(COc1ccccc1Cl)N1CCc2cc3nccc(N4CCN5CCC[C@H]5C4)c3cc21	740 nM
CON=C1CCC(Cn2ccnc2)(c2ccc(Cl)cc2Cl)CC1 (centres undefined)	880 nM

Structure (SMILES)	IC50
CCC(CO)NCC(O)Cn1c2ccc(Br)cc2c2cc(Br)ccc21 (centres undefined)	780 nM
Fc1ccc(CNc2ncc(-c3ccsc3)c(-c3nccs3)n2)cc1	70 nM
CN1CCN(Cc2cccc(-c3ccc4c(Nc5ccc(Oc6ccccc6)cc5)ccnc4c3)c2)CC1	230 nM
N#Cc1ccc(C(=O)Nc2cc(-c3cccc(O)c3)cc3[nH]ncc23)cc1	1370 nM
COc1ccccc1-c1csc(C(=O)NCC2CCN(Cc3ccc(C(C)(C)C)cc3)C2)c1 (centres undefined)	1110 nM
COc1cc(Cc2cnc(N)nc2N)cc(OC)c1OC	750 nM
COc1ccc2nccc([C@@H](O)CN3CCC(NCc4cc5cccc(O)c5c(=O)[nH]4)CC3)c2c1	390 nM
OC(CNC1CCCCC1)Cn1c2ccc(I)cc2c2cc(I)ccc21 (centres undefined)	340 nM
C[C@@H]1CN(c2cnn(Cc3cccc(NC(=O)Nc4ccc(F)cc4[N+](=O)[O-])c3)c(=O)c2Cl)C[C@H](C)N1	870 nM
CC(C)COc1ccc(Cl)cc1Cc1ccc(-c2nc3ccc(Cl)cc3[nH]2)o1	930 nM
Cc1nc2nc(N)nc(N)c2c(C)c1Cc1cccc(C(N)=O)c1	1080 nM
CN1CCN(c2ccc(Nc3ccnc4ccc(-c5ccccc5)cc34)cc2)CC1	90 nM
O=C(/C=C/c1ccc([N+](=O)[O-])cc1)N1CCC(NS(=O)(=O)c2cccc(C(F)(F)F)c2)CC1	850 nM
Cc1cc2c(NC(=O)NC3CCN(CCc4cccc(Cl)c4)CC3)cccc2cn1	370 nM
CCOC(=O)C1CCN(CCOc2cc(NC(=O)/C=C/c3ccccc3Cl)ccc2Br)CC1	990 nM
Cc1nnsc1C(=O)Nc1ccc(-c2ccc(-c3nc4ccccc4[nH]3)s2)cc1	820 nM
CCNc1cc(C(=O)N[C@@H](Cc2ccccc2)[C@H](O)CNC23CCC(CC2)C3)cc(N2CCCCS2(=O)=O)c1	30 nM
CCC1(C)N=C(N)N=C(N)N1c1ccccc1 (centres undefined)	790 nM
O=c1ccc2ccc(O)c(O)c2o1	30 nM
CCn1c(C2CCN(CCC3CCN(C(=O)/C=C/c4ccc(Cl)c(Cl)c4)CC3)CC2)nc2ccccc21	1080 nM
CCCCCCCCOc1ccc(N2C(N)=NC(N)=NC2(C)C)cc1	500 nM
CC(C)(C)c1ccc(C(=O)Nc2cccc(Nc3c(C(=O)NCc4cccc(C(F)(F)F)c4)cnc4c(O)cccc34)c2)cc1	1090 nM
Cc1cc(NC(c2ccc(Cl)cc2)c2ccc3cccnc3c2O)no1 (centres undefined)	1090 nM
Nc1ccc(-c2ccc3ccnc(N)c3c2)cc1	680 nM
CCCCCCCCNCC(O)c1ccc(Cl)c(Cl)c1 (centres undefined)	820 nM

Structure (SMILES)	IC50
COc1cc(Cc2cnc(N)nc2N)ccc1OCc1cccc(Oc2ccccc2)c1	1330 nM
O=C(Nc1ccc(-c2ccccc2)s1)N[C@H]1CCN(Cc2ccc(OCCCN3CCCCC3)cc2)C1	740 nM
CC1CN(CC(O)Cn2c3ccc(Br)cc3c3cc(Br)ccc32)CC(C)O1 (centres undefined)	780 nM
Cc1[nH]c2ccccc2c1C1=CCN(CCN2CCOc3c(Br)cccc3C2=O)CC1	800 nM
CS(=O)(=O)c1ccc(CNCc2ccc(-c3cccc(-c4nc5ccccc5[nH]4)c3)cc2)cc1	330 nM
C=Cc1cc(OC)c2c(c1)c(=O)oc1c2cc(OC)c2c(O)ccc([C@H]3O[C@H]([C@@H](C)O)[C@H](O)[C@H]3O)c21	790 nM
O=C(c1ccco1)N1CCN(c2ccc([N+](=O)[O-])c(NC3CC3)c2)CC1	750 nM
CC(C)c1ccc(S(=O)(=O)Nc2cccc(CCN3CCC(N4CCCCC4)CC3)c2)cc1	1120 nM
Cc1cc(N(C)CCCN2CCCCC2)nc(Nc2ccc(Cl)cc2)n1	190 nM
COc1ccccc1CNC(=O)c1nn(-c2ccc(Cl)cc2)c(=O)c2ccccc12	290 nM
O=C(CCc1cccnc1)Nc1cccc(-c2ccc(-c3nc4ccc(C(F)(F)F)cc4[nH]3)s2)c1	950 nM
CCOc1ccc2c(NN=Cc3ccccc3F)cc(C)nc2c1	680 nM
O=C(NCCc1ccccc1)N(Cc1cccc(-c2ccc(CNCc3ccc4c(c3)OCO4)cc2)c1)C1CCN(Cc2ccccc2)CC1	660 nM
CC1(C)N=C(N)N=C(N)N1c1ccc2ccccc2c1	50 nM
NC1CCN(Cc2cccc(-c3cccc(-c4nc5ccccc5[nH]4)c3)c2)C1 (centres undefined)	790 nM
O=C(N[C@@H](CC1CCCCC1)C(=O)NCCc1ccc(Cl)c(Cl)c1)c1ccc(O)c(-c2ccc(Cl)c(Cl)c2)c1	160 nM
CCc1cn2c3c(cc(C(=O)N[C@@H](Cc4cccc(F)c4)[C@H](O)CNC4CCOCC4)cc13)N(C)S(=O)(=O)CC2	70 nM
O=C(Nc1cccc(CN2CCCN(CCc3ccccc3)CC2)c1)c1ccc(Cl)c(Cl)c1	950 nM
Cc1cc(C)cc(NC(=S)NCCCCN2CCN(c3cccc(Cl)c3)CC2)c1	1350 nM
O=S(=O)(c1csc2ccccc12)N(CCC(O)(C(F)(F)F)C(F)(F)F)Cc1cccc(O)c1	360 nM
CNCCNCc1cccc(-c2cccc(-c3nc4c(C)cccc4[nH]3)c2)c1	770 nM
CNC(=O)CSc1nnc(-c2ccc(C)cc2)c(-c2ccc(C)cc2)n1	600 nM
COc1ccc(Cl)cc1N1CCN(CCCNC(=O)c2ccc(-c3nc4cc(Cl)c(F)cc4[nH]3)cc2)CC1	1060 nM
O=C(NCc1cccc(F)c1)Nc1cccc(-c2cccc(-c3nc4ccccc4[nH]3)c2)c1	390 nM
Cc1cccc2[nH]c(-c3ccc(-c4cccc(NC(=O)c5ccncc5)c4)cc3)nc12	840 nM

Structure (SMILES)	IC50
COc1ccc(CNc2ccnc(-n3cnc4cc(C)c(C)cc43)n2)cc1Cl	270 nM
COc1cc(O)c2c(=O)c(OC)c(-c3cccc(Cl)c3OCC(=O)O)oc2c1OC	590 nM
COc1ccc2nc(C)cc(NN=Cc3ccccc3Cl)c2c1	600 nM
CCc1cn2c3c(cc(C(=O)N[C@@H](Cc4cccc(Cl)c4)[C@H](O)CNC4CCCCC4)cc13)N(C)S(=O)(=O)CC2	60 nM
CCOc1c(CNCCCNc2nc3ccccc3[nH]2)cc(Br)cc1OC	560 nM
Cc1cc(CNC(=O)c2ccc(-c3ccc(-c4nc5ccc(C(F)(F)F)cc5[nH]4)s3)cc2)on1	730 nM
CN(C)CCOc1cc(NC(=O)Nc2ccc(Cl)cc2C(F)(F)F)ccc1I	930 nM
CCN(Cc1ccccc1)C1CCN(Cc2cc(Br)ccc2O)CC1	820 nM
O=C(Nc1ccc(Cl)c(Cl)c1)Nc1ccc2nccc(N3CCNCC3)c2c1	260 nM
C/C=C1\CN2CC[C@H]1C[C@H]2[C@H](O)c1ccnc2ccc(O)cc12	600 nM
COc1ccc2ncc(F)c([C@@H](O)CN3CCC(NCc4cc5c(cn4)OCCO5)CC3)c2c1	140 nM
CCCC(=O)Nc1ccc(OCCCN(Cc2ccccc2C(F)(F)F)c2ccc(C#N)c(C(F)(F)F)c2)cc1	930 nM
Cc1cnc2ccc(NS(=O)(=O)c3ccc4c(Cl)cccc4c3)cc2c1N1CCNCC1	750 nM
COCC(=O)N(Cc1ccccc1-c1cccc(CNCc2ccc3c(c2)OCO3)c1)C1CCN(Cc2ccccc2)CC1	840 nM
CCNc1cc(C)nc(Nc2ccc(NC(=O)Cc3ccc(OC)cc3)cc2)n1	1380 nM
CN1CCC(C(=O)N(Cc2ccc(-c3ccc(CNCCc4ccc(S(C)(=O)=O)cc4)cn3)cc2)C2Cc3ccccc3C2)CC1	660 nM
O=C(COc1ccc(Cl)cc1)N1CCC(CN2CCC(c3c[nH]c4ccccc34)CC2)CC1	1100 nM
COC(=O)c1cccc(N2CCN(CCCNC(=O)/C(=C/C=C/c3cc4cc(Cl)c(Cl)cc4[nH]3)OC)CC2)c1	670 nM
CCOC(=O)CNC(=O)N(CCN(Cc1ccccc1)C(=O)NCC(=O)OCC)Cc1ccccc1	770 nM
CCCCCCN1CCCN(Cc2ccc(C(=O)Nc3ccc(CCC)cc3)cc2)CC1	660 nM
Cc1ccc(-c2nc(NC(=O)Nc3ccc(C(F)(F)F)cc3)sc2C)cc1Cl	660 nM
COc1ccc(OC(C)CNC(=O)c2cc([N+](=O)[O-])ccc2-c2ccc(OC)cc2)cc1 (centres undefined)	1150 nM
Nc1nc(N)c2c(ccc3c2cnn3Cc2cccnc2)n1	50 nM
CCOc1ccc2nc3cc(N)ccc3c(N)c2c1	530 nM
